In patent US11660280B2, “Treatment of drug resistant gliomas” (OKLAHOMA MEDICAL RESEARCH FOUNDATION, priority 2017, dated 2023):

Key:
HIF-1α [1] = test: RT-PCR gene-fold changes in human GBM cells; format: cell-based
Method: Quantification of mRNA by real-time quantitative RT-PCR for HIF-1a, MPG and MGMT. Total RNA from all cell lines with all treatments was purified with an RNeasy Mini Kit (Qiagen), and quantified by spectrophotometry (Nanodrop). cDNA was synthesized using SuperScript IV Reverse Transcriptase Kit (Invitrogen).
Target gene mRNA was amplified and measured by Bio-Rad CFX96™ Real Time System. Gene expression was determined using the SYBR Select Master Mix (Applied Biosystems). […] The reaction is characterized by the point during cycling when amplification of PCR products is first detected, rather than the amount of PCR product accumulated after a fixed number of cycles. The higher the starting quantity of the template, the earlier a significant increase in fluorescence is observed. The threshold cycle is defined as the fractional cycle number at which fluorescence passes a fixed threshold above the baseline. Fluorescence data were converted into cycle threshold measurements exported to Microsoft Excel. Glyceraldehyde-3-phosphatase dehydrogenase (GAPDH) mRNA expression levels were used as the quantitative internal control. For precise quantification, the mRNA expression level of each sample was normalized using the expression of the GAPDH gene.
All primers were synthesized by Integrated DNA Technologies. The primers used were: […]

HIF-1α [2] = test: ELISA protein level in human GBM cell lysates; format: cell-based
Method: (§1) ELISA for HIF-1a, MPG and MGMT. Protein expressions were assessed in all six glioma cell lines for all four groups of treatment (cell alone, cells with TMZ, cells with OKN, cells with combined OKN and TMZ). Cells were lysed before assaying. In brief, cells were washed by cold PBS gently, and then detached with trypsin, and collected by centrifugation at 1,000×g for 5 minutes. Then, cells were washed three times in cold PBS, then suspended in fresh lysis buffer. Lysates were centrifuged at 1,500×g for 10 minutes at 2-8° C. to remove cellular debris.
(§2) The assay is based on the sandwich ELISA principle. Each well of the supplied microtiter plate has been pre-coated with a target specific capture antibody. Standards or samples are added to the wells and the target antigen binds to the capture antibody. Unbound Standard or sample is washed away. A biotin-conjugated detection antibody is then added which binds to the captured antigen. Unbound detection antibody is washed away. An Avidin-Horseradish Peroxidase (HRP) conjugate is then added which binds to the biotin. Unbound Avidin-HRP conjugate is washed away. A TMB substrate is then added which reacts with the HRP enzyme resulting in color development. A sulfuric acid stop solution is added to terminate color development reaction and then the optical density (OD) of the well is measured at a wavelength of 450 nm±2 nm. The OD of an unknown sample can then be compared to an OD standard curve generated using known antigen concentrations in order to determine its antigen concentration.
(§3) The antigen concentration determined from ELISA was then normalized to the total protein concentration of each cell lysate in order to have comparison between groups. ELISA Kits for N-Methylpurine DNA Glycosylase (MPG) and for Hypoxia Inducible Factor 1 Alpha (HIF1a) were purchased from CLOUD-CLONE CORP.(CCC) and for Human MGMT from LifeSpan Biosciences, Inc.

MGMT = test: ELISA protein level in human GBM cell lysates; format: cell-based
Method: as §1, §2, §3

MPG = test: ELISA protein level in human GBM cell lysates; format: cell-based
Method: as §1, §2, §3

human G55 xenograft = test: Orthotopic G55 human GBM xenograft in nude mice (survival, MRI tumor volume, perfusion rCBF); format: in vivo, mouse
Method: Mice and Treatments. Animal studies were conducted in accordance to the OMRF IACUC (Institutional Animal Care and Use Committee) policies, which follow NIH guidelines. Two-month-old male nude mice (Hsd:Athymic Nude-Foxnlnu mice; Harlan Inc., Indianapolis, Ind.) were implanted intra-cerebrally with human G55 xenograft cells (1×10^7) per mL suspended in 4 μL in cell culture media of 1% aragose solution. Once tumors reached 10-15 mm^3 (determined via MRI), mice were either treated every 3 days with OKN-007 (150 mg/kg; via drinking water continuously) or TMZ (30 mg/kg via gavage every 3 days). TMZ was dissolved in 5% DMSO and 5% solutol-15 in sterile saline. Mice were treated until the tumor reached 100-150 mm^3 or for a total of up to 60 days after tumors were detected by MRI (>5 mm^3).
MRI. MRI experiments were performed on a Bruker Bio-spec 7.0 Tesla/30-cm horizontal-bore magnet imaging system. […] T2-weighted imaging was obtained, and tumor volumes were calculated from MRI datasets.
Perfusion imaging. In order to assess microvascular alterations associated with tumor capillaries, the perfusion imaging method, arterial spin labeling (ASL), was used. Perfusion maps were obtained on a single axial slice of the brain located on the point of the rostro-caudal axis where the tumor has the largest cross-section. Five regions of interest (ROIs) were manually outlined around the tumor, and appropriate ROIs were also taken from the contralateral side of the brain for comparison purposes. To calculate the differences in rCBF values, tumor rCBF values were obtained at late (days 18-26 following intracerebral implantation of cells for untreated mice) and early (days 10-13 following cell implantation) tumor stages, and normalized to rCBF values in the contralateral brain region of corresponding animals.
Statistical analyses. Survival curves were analyzed using Kaplan-Meier curves. Tumor volumes, changes in normalized rCBF, and LBP levels were compared by two-way ANOVA with multiple comparisons. Data were represented as mean±SD, and P-values of either *0.05, **0.01, ***0.001, and ****0.0001 were considered statistically significant.
Mice and Treatments. Animal studies were conducted in accordance to the OMRF IACUC (Institutional Animal Care and Use Committee) policies, which follow NIH guidelines. […] Once tumors reached 10-15 mm^3 (determined via MRI), mice were either treated daily with OKN-007 in the drinking water (150 mg/kg; 0.20% w/v for a 20 g mouse), or every 3 days with TMZ (30 mg/kg). […] Water bottles were weighed, and the amount of OKN-007 consumed per mouse was determined. […]

G55 GBM cells = test: Cell migration in laminin-coated PDMS micro-channels; format: cell-based, human; conditions: at 22 h and 46 h following treatment
Method: Cell migration. For the migration study, 6-well chambers with PDMS (polydimethylsiloxane) micro-channels inside were coated with 10 μg/ml of laminin (Sigma-Aldrich) in each well. G55 cells were seeded (50×10^3) in 100 μl and supplemented with 2 ml of media in each well. The chambers were incubated in the incubator at 37° C. with 5% CO2 until scheduled time points. Some chambers were treated with OKN-007, TMZ or OKN-007 combined with TMZ (1 μL/mL media for both OKN-007 and TMZ, as well as when the two are combined), and for each treatment group one well was left untreated as a control. Images of the cells inside the microchannels were taken using an Olympus CK40 inverted microscope (Japan) under 10× and the distances of the same cells traveled were measured at 22 h, 28 h, and 46 h post seeding, cell migration speed (μm/h) was calculated. Each treatment was repeated at least 3 times and data shown as mean ±S.D.

[3] = system: GBM cells (LN229, U138, G55, U251, T98, LN18); test: Cell viability at 1 mM vs 2 mM OKN; format: cell-based, human
Solubility in water = format: physicochemical; conditions: free acid

Structure (SMILES): CC(C)(C)[N+]([O-])=Cc1ccc(S(=O)(=O)O)cc1S(=O)(=O)O [OKN-007, 2,4-disulfonyl phenyl tert-butyl nitrone]
- RT-PCR gene-fold change HIF-1α (HIF-1α [1]; G55 cells (TMZ-resistant), UT 1.00): 1.20 fold
- RT-PCR gene-fold change HIF-1α (HIF-1α [1]; LN18 cells (TMZ-resistant), UT 1.03): 1.35 fold
- RT-PCR gene-fold change HIF-1α (HIF-1α [1]; LN229 cells (TMZ-sensitive), UT 1.00): 1.09 fold
- RT-PCR gene-fold change HIF-1α (HIF-1α [1]; T98 cells (TMZ-resistant), UT 1.00): 0.58 fold
- RT-PCR gene-fold change HIF-1α (HIF-1α [1]; U138 cells (TMZ-resistant), UT 1.00): 2.93 fold
- RT-PCR gene-fold change HIF-1α (HIF-1α [1]; U251 cells (TMZ-sensitive), UT 1.00): 1.59 fold
- ELISA protein level HIF-1α (HIF-1α [2]; G55 cells, UT 0.14): 0.19 ng/mg cell lysate
- ELISA protein level HIF-1α (HIF-1α [2]; LN18 cells, UT 0 76): 0.92 ng/mg cell lysate
- ELISA protein level HIF-1α (HIF-1α [2]; LN229 cells, UT 0.68): 0.66 ng/mg cell lysate
- ELISA protein level HIF-1α (HIF-1α [2]; T98 cells, UT 0.42): 0.58 ng/mg cell lysate
- ELISA protein level HIF-1α (HIF-1α [2]; U138 cells, UT 0.40): 0.33 ng/mg cell lysate
- ELISA protein level HIF-1α (HIF-1α [2]; U251 cells, UT 0.30): 0.61 ng/mg cell lysate
- ELISA protein level MGMT (MGMT; G55 cells, UT 0.37): 0.31 ng/mg cell lysate
- ELISA protein level MGMT (MGMT; LN18 cells, UT 1.23): 0.98 ng/mg cell lysate
- ELISA protein level MGMT (MGMT; LN229 cells, UT 0.67): 0.69 ng/mg cell lysate
- ELISA protein level MGMT (MGMT; T98 cells, UT 0.62): 0.84 ng/mg cell lysate
- ELISA protein level MGMT (MGMT; U138 cells, UT 0.77): 0.75 ng/mg cell lysate
- ELISA protein level MGMT (MGMT; U251 cells, UT 0.92): 0.91 ng/mg cell lysate
- ELISA protein level MPG (MPG; G55 cells, UT 1.15): 1.41 ng/mg cell lysate
- ELISA protein level MPG (MPG; LN18 cells, UT 2.18): 2.38 ng/mg cell lysate
- ELISA protein level MPG (MPG; LN229 cells, UT 2.34): 1.88 ng/mg cell lysate
- ELISA protein level MPG (MPG; T98 cells, UT 3.04): 3.61 ng/mg cell lysate
- ELISA protein level MPG (MPG; U138 cells, UT 1.30): 1.22 ng/mg cell lysate
- ELISA protein level MPG (MPG; U251 cells, UT 2.70): 2.77 ng/mg cell lysate
- percent of treated mice alive 60 days following tumor detection (human G55 xenograft; G55 glioma-bearing nude mice, OKN-007 150 mg/kg in drinking water, TMZ 30 mg/kg gavage every 3 days, n=5): 20%
- tumor volumes compared to UT mice (human G55 xenograft; MRI at 19-22 days following tumor detection, G55 glioma-bearing mice): significantly decreased tumor volumes
- tumor volumes compared to UT mice (human G55 xenograft; last MRI time-point for each treatment group): no significant difference in tumor volumes
- tumor perfusion rates compared to TMZ treatment (human G55 xenograft; perfusion MRI, no significant differences between treated groups): more normalized perfusion rates
- cell migration speed compared to untreated (UT) cells (G55 GBM cells): significantly decreased
- reduction of cell viabilities, 1 mM OKN compared to the 2 mM concentration ([3]; LN229, U138, G55 cells): just as effective
- reduction of cell viabilities, 2 mM OKN compared to the 1 mM concentration ([3]; U251, T98, LN18 cells): slightly more effective
- solubility in water (Solubility in water): greater than 1 gram/ml
